This passage reports IC50 results from patent US20250179103A1, “6-OXODECAHYDROPYRROLO[1,2-A][1,5]DIAZOCINE AND 6-OXODECAHYDRO-4H-PYRROLO[2,1-D][1,5]THIAZOCINE DERIVATIVES AS STAT3 AND STAT6 MODULATORS FOR THE TREATMENT OF CANCER AND INFLAMMATORY CONDITIONS” (Recludix Pharma, Inc., priority 2022, published 2025).

For experiment [1], the target named is T1, Recombinant STAT6 protein (STAT6(W123-T658)) (Homo sapiens, UniProt P42226).
T1 construct: Recombinant STAT6 protein (STAT6(W123-T658))
T1 sequence (P42226 123-658): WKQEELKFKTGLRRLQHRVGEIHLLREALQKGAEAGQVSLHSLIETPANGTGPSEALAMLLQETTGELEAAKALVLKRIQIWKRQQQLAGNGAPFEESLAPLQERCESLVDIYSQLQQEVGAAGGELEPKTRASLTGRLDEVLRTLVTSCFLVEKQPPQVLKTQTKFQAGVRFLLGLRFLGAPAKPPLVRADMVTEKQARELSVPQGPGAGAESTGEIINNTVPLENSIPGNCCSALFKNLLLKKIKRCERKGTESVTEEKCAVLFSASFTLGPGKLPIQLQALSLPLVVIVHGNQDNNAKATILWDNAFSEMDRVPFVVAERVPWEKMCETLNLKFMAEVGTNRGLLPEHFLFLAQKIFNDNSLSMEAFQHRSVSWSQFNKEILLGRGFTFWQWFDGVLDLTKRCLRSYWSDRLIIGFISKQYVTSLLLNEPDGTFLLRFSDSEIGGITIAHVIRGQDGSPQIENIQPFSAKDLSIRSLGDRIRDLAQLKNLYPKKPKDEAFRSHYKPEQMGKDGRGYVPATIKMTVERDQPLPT
Kind of experiment: STAT6 Fluorescence Polarization (FP) Assay. In kind it is binding. To be noted: STAT6(W123-T658) 250 nM, probe 5-FAM-ApYKPFQDLI-NH2 2 nM, 45-minute incubation. In outline: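 Displacement of a fluorescent phosphotyrosine peptide (5-FAM-ApYKPFQDLI-NH2, 2 nM) from STAT6(W123-T658) (250 nM), 1% DMSO, pH 7.4 HEPES buffer. After 45 min at room temperature, polarization (mP) was plotted versus log compound concentration and fitted by nonlinear regression to give IC50.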
Background: In fluorescence polarisation assays a small probe gives low polarisation when free and higher when bound to something large.

The target in experiment [2] is T2, Recombinant STAT3 protein (STAT3(G127-I722)) (Homo sapiens, UniProt P40763).
T2 construct: Recombinant STAT3 protein (STAT3(G127-I722))
The experiment in a line: STAT3 Fluorescence Polarization (FP) Assay. In kind it is binding. To be noted: STAT3(G127-I722) 25 nM, probe 5-FAM-GpYLPQTV-NH2 2 nM, 45-minute incubation. An outline of the steps:
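STAT3(G127-I722), 25 nM, was mixed with 2 nM 5-FAM-GpYLPQTV-NH2 probe in HEPES pH 7.4 buffer with 1% DMSO and serially diluted compound. FP (mP) was read after 45 min at room temperature. IC50 came from nonlinear regression.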

T2 sequence (P40763 127-722): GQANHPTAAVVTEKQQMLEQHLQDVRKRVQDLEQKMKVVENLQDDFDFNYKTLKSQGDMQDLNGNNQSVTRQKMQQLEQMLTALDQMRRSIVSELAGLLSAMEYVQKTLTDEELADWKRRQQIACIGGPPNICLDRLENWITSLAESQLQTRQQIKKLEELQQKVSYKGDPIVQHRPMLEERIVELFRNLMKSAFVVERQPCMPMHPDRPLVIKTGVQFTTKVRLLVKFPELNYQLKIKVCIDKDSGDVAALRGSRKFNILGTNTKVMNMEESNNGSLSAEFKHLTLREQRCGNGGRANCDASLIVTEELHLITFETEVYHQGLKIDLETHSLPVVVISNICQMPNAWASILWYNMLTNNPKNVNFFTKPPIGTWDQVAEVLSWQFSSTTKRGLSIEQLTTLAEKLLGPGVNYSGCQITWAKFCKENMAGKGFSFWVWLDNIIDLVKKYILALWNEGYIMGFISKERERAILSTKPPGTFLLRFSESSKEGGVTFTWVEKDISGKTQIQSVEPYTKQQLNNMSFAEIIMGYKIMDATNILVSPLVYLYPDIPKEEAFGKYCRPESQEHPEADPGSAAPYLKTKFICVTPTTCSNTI

What is called IC50 is the concentration that inhibits the measured activity by half. Take `CC(=O)N1CC[C@H](NC(=O)c2cc3cc(C(F)(F)P(=O)(O)O)ccc3s2)C(=O)N2[C@H](CC[C@H]2C(=O)N2CC(c3cccnc3)C2)C1` [Compound 40, ((2-(((5S,8S,10aR)-2-acetyl-6-oxo-8-(3-(pyridin-3-yl)azetidine-1-carbonyl)decahydropyrrolo[1,2-a][1,4]diazocin-5-yl)carbamoyl)benzo[b]thiophen-5-yl)difluoromethyl)phosphonic acid]: the IC50 in experiment [1] was 3 to 30 µM; in experiment [2], at most 100 nM.
The matching figures for `CC(=O)N1CC[C@H]2CC[C@@H](C(=O)N3C[C@@H](C#N)C[C@@H]3Cc3ccccc3)N2C(=O)[C@@H](NC(=O)c2cc3cc(C(F)(F)P(=O)(O)O)ccc3s2)C1` [Compound 42, ((2-(((5S,8S,10aR)-3-acetyl-8-((2R,4S)-2-benzyl-4-cyanopyrrolidine-1-carbonyl)-6-oxodecahydropyrrolo[1,2-a][1,5]diazocin-5-yl)carbamoyl)benzo[b]thiophen-5-yl)difluoromethyl)phosphonic acid]: 0.3 to 3 µM and 1000 to 10000 nM.
The like results for `CC(=O)N1CC[C@H]2CC[C@@H](C(=O)N3C[C@H](C#N)C[C@@H]3Cc3ccccc3)N2C(=O)[C@@H](NC(=O)c2cc3cc(C(F)(F)P(=O)(O)O)ccc3s2)C1` [Compound 43, ((2-(((5S,8S,10aR)-3-acetyl-8-((2R,4R)-2-benzyl-4-cyanopyrrolidine-1-carbonyl)-6-oxodecahydropyrrolo[1,2-a][1,5]diazocin-5-yl)carbamoyl)benzo[b]thiophen-5-yl)difluoromethyl)phosphonic acid] were, in that order, 0.3 to 3 µM and 1000 to 10000 nM.
The like results for `CC(=O)N1CC[C@H]2CC[C@@H](C(=O)Nc3c(C)cc(-c4ccccc4)cc3C)N2C(=O)[C@@H](NC(=O)c2cc3cc(C(F)(F)P(=O)(O)O)ccc3s2)C1` [Compound 44, ((2-(((5S,8S,10aR)-3-acetyl-8-((3,5-dimethyl-[1,1′-biphenyl]-4-yl)carbamoyl)-6-oxodecahydropyrrolo[1,2-a][1,5]diazocin-5-yl)carbamoyl)benzo[b]thiophen-5-yl)difluoromethyl)phosphonic acid] were, in that order, 3 to 30 µM and 100 to 1000 nM.
With `CC(=O)N1CC[C@H]2CC[C@@H](C(=O)N(C)c3ccccc3)N2C(=O)[C@@H](NC(=O)/C(C)=C/c2cccc(C(F)(F)P(=O)(O)O)c2)C1` [Compound 45, ((3-((E)-3-(((5S,8S,10aR)-3-acetyl-8-(methyl(phenyl)carbamoyl)-6-oxodecahydropyrrolo[1,2-a][1,5]diazocin-5-yl)amino)-2-methyl-3-oxoprop-1-en-1-yl)phenyl)difluoromethyl)phosphonic acid], the IC50 in experiment [1] is above 30 µM; in experiment [2], above 10000 nM.
The like results for `CC(=O)N1CC[C@H]2CC[C@@H](C(=O)Nc3ccc(-c4ccccc4)cc3)N2C(=O)[C@@H](NC(=O)c2cc3cc(C(F)(F)P(=O)(O)O)c(F)cc3s2)C1` [Compound 46, ((2-(((5S,8S,10aR)-8-([1,1′-biphenyl]-4-ylcarbamoyl)-3-acetyl-6-oxodecahydropyrrolo[1,2-a][1,5]diazocin-5-yl)carbamoyl)-6-fluorobenzo[b]thiophen-5-yl)difluoromethyl)phosphonic acid] were, in that order, 0.3 to 3 µM and 1000 to 10000 nM.
The like results for `CC(=O)N1CC[C@H]2CC[C@@H](C(=O)N(C)c3ccc(C4(C)COC4)cc3)N2C(=O)[C@@H](NC(=O)c2cc3cc(C(F)(F)P(=O)(O)O)ccc3s2)C1` [Compound 47, ((2-(((5S,8S,10aR)-3-acetyl-8-(methyl(4-(3-methyloxetan-3-yl)phenyl)carbamoyl)-6-oxodecahydropyrrolo[1,2-a][1,5]diazocin-5-yl)carbamoyl)benzo[b]thiophen-5-yl)difluoromethyl)phosphonic acid] were, in that order, 0.3 to 3 µM and 1000 to 10000 nM.
